Residues, ends and D or L forms follow the SMILES beside them.
Tests used:
[1] = target: Bcl-w (Homo sapiens, UniProt Q92843); experiment: receptor | Bcl-w
[2] = target: Bcl-2 (Homo sapiens, UniProt P10415); experiment: receptor | Bcl-2
[3] = target: Bcl-xL (Homo sapiens, UniProt Q07817); experiment: receptor | Bcl-xL
[4] = target: Bfl-1 (Homo sapiens, UniProt Q16548); experiment: receptor | Bfl-1
[5] = target: KSBcl-2; experiment: receptor | KSBcl-2

Chain of Bcl-2 (P10415 whole entry, looked up): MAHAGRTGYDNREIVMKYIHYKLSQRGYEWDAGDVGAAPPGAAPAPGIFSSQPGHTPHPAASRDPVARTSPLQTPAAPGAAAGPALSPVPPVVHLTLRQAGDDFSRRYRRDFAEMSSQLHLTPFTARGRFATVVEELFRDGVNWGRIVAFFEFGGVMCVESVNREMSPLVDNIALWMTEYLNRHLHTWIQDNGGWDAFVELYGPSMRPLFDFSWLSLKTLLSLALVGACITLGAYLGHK
Chain of Bcl-xL (Q07817 whole entry, looked up): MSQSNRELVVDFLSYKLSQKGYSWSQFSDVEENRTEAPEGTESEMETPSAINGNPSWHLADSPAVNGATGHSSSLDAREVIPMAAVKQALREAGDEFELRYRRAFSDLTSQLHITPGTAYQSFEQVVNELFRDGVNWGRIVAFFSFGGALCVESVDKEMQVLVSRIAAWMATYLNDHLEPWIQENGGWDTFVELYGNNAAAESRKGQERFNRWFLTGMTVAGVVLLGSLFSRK
Chain of Bfl-1 (Q16548 whole entry, looked up): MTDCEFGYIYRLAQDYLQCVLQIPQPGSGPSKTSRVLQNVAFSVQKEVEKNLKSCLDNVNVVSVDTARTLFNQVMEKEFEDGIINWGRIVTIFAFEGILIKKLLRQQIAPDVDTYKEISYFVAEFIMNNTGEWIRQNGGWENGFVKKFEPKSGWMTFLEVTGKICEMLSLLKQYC
Chain of Bcl-w (Q92843 2-193 limits assumed): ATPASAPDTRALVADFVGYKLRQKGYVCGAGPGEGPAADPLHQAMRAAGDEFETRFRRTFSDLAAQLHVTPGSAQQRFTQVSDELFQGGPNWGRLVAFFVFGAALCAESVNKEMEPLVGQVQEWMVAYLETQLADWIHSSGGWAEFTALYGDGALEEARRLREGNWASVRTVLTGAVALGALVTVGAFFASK

Molecule	Kd [1] [nM]	Kd [2] [nM]	Kd [3] [nM]	Kd [4] [nM]	Kd [5] [nM]
CC[C@H](C)[C@H](NC(=O)[C@H](CCCNC(=N)N)NC(=O)[C@H](CCCNC(=N)N)NC(=O)[C@H](CC(C)C)NC(=O)[C@H](CCC(=O)O)NC(=O)[C@H](CCC(N)=O)NC(=O)[C@@H](NC(=O)[C@@H](NC(=O)[C@H](Cc1c[nH]c2ccccc12)NC(=O)[C@@H](NC(=O)[C@H](CCC(=O)O)NC(=O)[C@@H]1CCCN1C(=O)[C@@H](N)CCCNC(=N)N)[C@@H](C)CC)[C@@H](C)CC)[C@@H](C)O)C(=O)NCC(=O)N[C@@H](CC(=O)O)C(=O)N[C@@H](CCC(=O)O)C(=O)N[C@@H](Cc1ccccc1)C(=O)N[C@@H](CC(N)=O)C(=O)N[C@@H](C)C(=O)N[C@@H](Cc1ccc(O)cc1)C(=O)N[C@@H](Cc1ccc(O)cc1)C(=O)N[C@@H](C)C(=O)N[C@@H](CCCNC(=N)N)C(N)=O [Bim_A2eT]	39 ± 9.4	43 ± 12	17 ± 4.8	31 ± 6.8	–
RPEIWMTQGLRRLGDEINAYYAR [MS1]	–	–	–	–	2.9 ± 0.68
CC[C@H](C)[C@H](NC(=O)[C@H](CCCNC(=N)N)NC(=O)[C@H](CCCNC(=N)N)NC(=O)[C@H](CC(C)C)NC(=O)[C@H](CCC(=O)O)NC(=O)[C@H](CCC(N)=O)NC(=O)[C@@H](NC(=O)[C@H](CCSC)NC(=O)[C@H](Cc1c[nH]c2ccccc12)NC(=O)[C@@H](NC(=O)[C@H](CCC(=O)O)NC(=O)[C@@H]1CCCN1C(=O)[C@@H](N)CCCNC(=N)N)[C@@H](C)CC)[C@@H](C)O)C(=O)NCC(=O)N[C@@H](CC(=O)O)C(=O)N[C@@H](CCC(=O)O)C(=O)N[C@@H](Cc1ccccc1)C(=O)N[C@@H](CC(N)=O)C(=O)N[C@@H](C)C(=O)N[C@@H](Cc1ccc(O)cc1)C(=O)N[C@@H](Cc1ccc(O)cc1)C(=O)N[C@@H](C)C(=O)N[C@@H](CCCNC(=N)N)C(N)=O [Bim_A2eT_I2dM]	260 ± 52	210 ± 71	83 ± 53	150 ± 69	–
CC[C@H](C)[C@H](NC(=O)[C@H](CCC(=O)O)NC(=O)[C@@H]1CCCN1C(=O)[C@@H](N)CCCNC(=N)N)C(=O)N[C@@H](Cc1c[nH]c2ccccc12)C(=O)N[C@H](C(=O)N[C@H](C(=O)N[C@@H](CCC(N)=O)C(=O)N[C@@H](CCC(=O)O)C(=O)N[C@@H](CC(C)C)C(=O)N[C@@H](CCCNC(=N)N)C(=O)N[C@@H](CCCNC(=N)N)C(=O)N[C@@H](CC(C)C)C(=O)NCC(=O)N[C@@H](CC(=O)O)C(=O)N[C@@H](CCC(=O)O)C(=O)N[C@@H](Cc1ccccc1)C(=O)N[C@@H](CC(N)=O)C(=O)N[C@@H](C)C(=O)N[C@@H](Cc1ccc(O)cc1)C(=O)N[C@@H](Cc1ccc(O)cc1)C(=O)N[C@@H](C)C(=O)N[C@@H](CCCNC(=N)N)C(N)=O)[C@@H](C)O)[C@@H](C)CC [Bim_A2eT_I3dL]	12 ± 2.6	37 ± 14	7.6 ± 3.8	120 ± 27	–
RPEIWLTQSLQRLGDEINAYYAR [MS2]	–	–	–	–	< 1
CC[C@H](C)[C@H](NC(=O)[C@H](CCC(=O)O)NC(=O)[C@H](CC(=O)O)NC(=O)CNC(=O)[C@H](CC(C)C)NC(=O)[C@H](CCCNC(=N)N)NC(=O)[C@H](CCC(N)=O)NC(=O)[C@H](CC(C)C)NC(=O)[C@H](Cc1c[nH]cn1)NC(=O)[C@H](CCC(N)=O)NC(=O)[C@@H](NC(=O)[C@H](CC(C)C)NC(=O)[C@H](Cc1c[nH]c2ccccc12)NC(=O)[C@@H](NC(=O)[C@H](CCC(=O)O)NC(=O)[C@@H]1CCCN1C(=O)[C@@H](N)CCCNC(=N)N)[C@@H](C)CC)[C@@H](C)O)C(=O)N[C@@H](CC(N)=O)C(=O)N[C@@H](C)C(=O)N[C@@H](Cc1ccc(O)cc1)C(=O)N[C@@H](Cc1ccc(O)cc1)C(=O)N[C@@H](C)C(=O)N[C@@H](CCCNC(=N)N)C(N)=O [MS3]	340 ± 69	–	–	790 ± 140	–
CC[C@H](C)[C@H](NC(=O)[C@H](CCC(=O)O)NC(=O)[C@H](CC(=O)O)NC(=O)CNC(=O)[C@H](CC(C)C)NC(=O)[C@H](CCCNC(=N)N)NC(=O)[C@H](CCC(N)=O)NC(=O)[C@H](CC(C)C)NC(=O)[C@H](CO)NC(=O)[C@H](CCC(N)=O)NC(=O)CNC(=O)[C@H](CC(C)C)NC(=O)[C@H](Cc1c[nH]c2ccccc12)NC(=O)[C@@H](NC(=O)[C@H](CCC(=O)O)NC(=O)[C@@H]1CCCN1C(=O)[C@@H](N)CCCNC(=N)N)[C@@H](C)CC)C(=O)N[C@@H](CC(N)=O)C(=O)N[C@@H](C)C(=O)N[C@@H](Cc1ccc(O)cc1)C(=O)N[C@@H](Cc1ccc(O)cc1)C(=O)N[C@@H](C)C(=O)N[C@@H](CCCNC(=N)N)C(N)=O [B3] (H-RPEIWLGQSLQRLGDEINAYYAR-NH2; N-terminus and C-terminus assumed)	–	–	–	–	1.43 ± 1.39
CC[C@H](C)[C@H](NC(=O)[C@H](CCC(=O)O)NC(=O)[C@H](CC(=O)O)NC(=O)CNC(=O)[C@H](CC(C)C)NC(=O)[C@H](CCCNC(=N)N)NC(=O)[C@H](CCCNC(=N)N)NC(=O)[C@H](CC(C)C)NC(=O)CNC(=O)[C@H](CCC(N)=O)NC(=O)CNC(=O)[C@H](CCSC)NC(=O)[C@H](Cc1c[nH]c2ccccc12)NC(=O)[C@@H](NC(=O)[C@H](CCC(=O)O)NC(=O)[C@@H]1CCCN1C(=O)[C@@H](N)CCCNC(=N)N)[C@@H](C)CC)C(=O)N[C@@H](CC(N)=O)C(=O)N[C@@H](C)C(=O)N[C@@H](Cc1ccc(O)cc1)C(=O)N[C@@H](Cc1ccc(O)cc1)C(=O)N[C@@H](C)C(=O)N[C@@H](CCCNC(=N)N)C(N)=O [A12] (H-RPEIWMGQGLRRLGDEINAYYAR-NH2; N-terminus and C-terminus assumed)	–	–	–	–	4 ± 2.6

From patent publication US11142554B2 (MASSACHUSETTS INSTITUTE OF TECHNOLOGY, priority 2015, dated 2021)
